{
  "source": "paper PMC5314429",
  "about": "“Enhancing PET Signal at Target Tissue in Vivo: Dendritic and Multimeric Tris(hydroxypyridinone) Conjugates for Molecular Imaging of αvβ3 Integrin Expression with Gallium-68” (Bioconjugate Chemistry, 2016)",
  "origin": "cited, not measured here",
  "parameters": "method as in PMID 16821777",
  "data": [
    {"smiles": "CC(=O)NC(CCC(=O)NCc1c(O)c(=O)cc(C)n1C)(CCC(=O)NCc1c(O)c(=O)cc(C)n1C)CCC(=O)NCc1c(O)c(=O)cc(C)n1C", "note": "[THP-Ac]", "values": [
      {"measurement": "log K1 for Fe^3+", "result": 32.52},
      {"measurement": "pFe^3+", "setting": "pH 7.4, [Fe^3+] = 10^–6 M, [Ligand] = 10^–5 M", "result": 28.47}
    ]}
  ]
}
